Test results published in patent publication US7135462B2, “Hepatitis C virus inhibitors” (priority 2003, dated 2006).
Like-named read-outs stand apart in the source and are kept apart here.

Key:
[1] = biological target: T1, HCV NS3/4A protease complex (BMS strain) (UniProt P27958, C1454S/C1711G, species not given); assay: Recombinant HCV NS3/4A protease complex FRET peptide assay; assay type: biochemical, Hepatitis C virus (HCV), genotype 1a; conditions: NS3/4A BMS strain, activity range class
T1 construct: for H77 and J4L6S; fused on or other part: Three-lysine solubilising tail at the C-terminus of NS4A
Excerpt: Recombinant HCV NS3/4A Protease Complex FRET Peptide Assay
Serum from an HCV-infected patient was obtained from Dr. T. Wright, San Francisco Hospital. An engineered full-length cDNA (compliment deoxyribonucleic acid) template of the HCV genome (BMS strain) was constructed from DNA fragments obtained by reverse transcription-PCR (RT-PCR) of serum RNA (ribonucleic acid) and using primers selected on the basis of homology between other genotype 1a strains.
The H77 and J4L6S strains were used for production of recombinant NS3/4A protease complexes. […] Briefly, a three-lysine solubilizing tail was added at the 3′-end of the NS4A coding region. […] Briefly, the NS3/4A protease complex expression was induced with 0.5 millimolar (mM) Isopropyl β-D-1-thiogalactopyranoside (IPTG) for 22 hours (h) at 20° C. […] The cells were resuspended in lysis buffer (10 mL/g) consisting of 25 mM N-(2-Hydroxyethyl)piperazine-N′-(2-Ethane Sulfonic acid) (HEPES), pH 7.5, 20% glycerol, 500 mM Sodium Chloride (NaCl), 0.5% Triton X-100, 1 microgram/milliliter (“μg/mL”) lysozyme, 5 mM Magnesium Chloride (MgCl2), 1 μg/ml DnaseI, 5 mM β-Mercaptoethanol (βME), Protease inhibitor—Ethylenediamine Tetraacetic acid (EDTA) free (Roche), homogenized and incubated for 20 minutes (min) at 4° C. The homogenate was sonicated and clarified by ultra-centrifugation at 235000 g for 1 h at 4° C. Imidazole was added to the supernatant to a final concentration of 15 mM and the pH adjusted to 8.0. The crude protein extract was loaded on a Nickel—Nitrilotriacetic acid (Ni-NTA) column pre-equilibrated with buffer B (25 mM HEPES, pH 8.0, 20% glycerol, 500 mM NaCl, 0.5% Triton X-100, 15 mM imidazole, 5 mM βME). The sample was loaded at a flow rate of 1 mL/min. The column was washed with 15 column volumes of buffer C (same as buffer B except with 0.2% Triton X-100). The protein was eluted with 5 column volumes of buffer D (same as buffer C except with 200 mM Imidazole).
NS3/4A protease complex-containing fractions were pooled and loaded on a desalting column Superdex-S200 pre-equilibrated with buffer D (25 mM HEPES, pH 7.5, 20% glycerol, 300 mM NaCl, 0.2% Triton X-100, 10 mM βME). Sample was loaded at a flow rate of 1 mL/min. NS3/4A protease complex-containing fractions were pooled and concentrated to approximately 0.5 mg/ml.
The enzyme was stored at −80° C., thawed on ice and diluted prior to use in assay buffer. […] The sequence of this peptide is loosely based on the NS4A/NS4B natural cleavage site for the HCV NS3 protease except there is an ester linkage rather than an amide bond at the cleavage site. The peptide substrate was incubated with one of the three recombinant NS3/4A protease complexes, in the absence or presence of a compound of the present invention, and the formation of fluorescent reaction product was followed in real time using a Cytofluor Series 4000.
The reagents were as follow: HEPES and Glycerol (Ultrapure) were obtained from GIBCO-BRL. Dimethyl Sulfoxide (DMSO) was obtained from Sigma. β-Mercaptoethanol was obtained from Bio Rad.
Assay buffer: 50 mM HEPES, pH 7.5; 0.15 M NaCl; 0.1% Triton; 15% Glycerol; 10 mM βME. Substrate: 2 μM final concentration (from a 2 mM stock solution in DMSO stored at −20° C.). HCV NS3/4A protease type 1a (1b), 2–3 nM final concentration (from a 5 μM stock solution in 25 mM HEPES, pH 7.5, 20% glycerol, 300 mM NaCl, 0.2% Triton-X100, 10 mM βME).
The assay was performed in a 96-well polystyrene black plate from Falcon.

[2] = system: HCV replicon in Huh7 cells; assay: microbe, parasite or virus in culture; assay type: cell-based, strain 1b; conditions: Hepatitis C virus, Huh-7, 96 h; Huh7 cells expressing HCV replicon, 4 days; activity range class
Excerpt: Generation of HCV Replicon
This system enabled us to evaluate the effects of our HCV Protease compounds on HCV RNA replication. Briefly, using the HCV strain 1b sequence described in the Lohmann paper (Assession number: AJ238799), an HCV cDNA was generated encoding the 5′ internal ribosome entry site (IRES), the neomycin resistance gene, the EMCV (encephalomyocarditis viurs)-IRES and the HCV nonstructural proteins, NS3-NS5B, and 3′ non-translated region (NTR). In vitro transcripts of the cDNA were transfected into the human hepatoma cell line, Huh7. […] Resulting cell lines were characterized for positive and negative strand RNA production and protein production over time.
Huh7 cells, constitutively expressing the HCV replicon, were grown in Dulbecco's Modified Eagle Media (DMEM) containing 10% Fetal calf serum (FCS) and 1 mg/ml G418 (Gibco-BRL). Cells were seeded the night before (1.5×10^4 cells/well) in 96-well tissue-culture sterile plates. Compound and no compound controls were prepared in DMEM containing 4% FCS, 1:100 Penicillin/Streptomysin, 1:100 L-glutamine and 5% DMSO in the dilution plate (0.5% DMSO final concentration in the assay). Compound/DMSO mixes were added to the cells and incubated for 4 days at 37° C. After 4 days, plates were rinsed thoroughly with Phosphate-Buffered Saline (PBS) (3 times 150 μl). The cells were lysed with 25 μl of a lysis assay reagent containing the FRET peptide (RET S1, as described for the in vitro enzyme assay). The lysis assay reagent was made from 5× cell Luciferase cell culture lysis reagent (Promega #E153A) diluted to 1× with distilled water, NaCl added to 150 mM final, the FRET peptide diluted to 10 μM final from a 2 mM stock in 100% DMSO. The plate was then placed into the Cytofluor 4000 instrument which had been set to 340 nm excitation/490 nm emission, automatic mode for 21 cycles and the plate read in a kinetic mode. EC50 determinations were carried out as described for the IC50 determinations. […]
The percentage inhibition was calculated using the formula below: […]
The values were graphed and analyzed using XLFit to obtain the EC50 value.

Structure (SMILES)	IC50 ([1]; read-out: IC50) [nM]	EC50 [2] [nM]	IC50 [1] [nM]
C=C[C@@H]1C[C@]1(NC(=O)[C@@H]1C[C@@H](Oc2nccc3cc(OC)ccc23)CN1C(=O)[C@@H](NC(=O)OC(C)(C)C)C(C)(C)C)C(=O)NS(=O)(=O)C1(CCC)CC1 [Cmpd 302, (1-{4-(6-Methoxy-isoquinolin-1-yloxy)-2-[1-(1-propyl-cyclopropanesulfonylaminocarbonyl)-2-vinyl-cyclopropylcarbamoyl]-pyrrolidine-1-carbonyl}-2,2-dimethyl-propyl)-carbamic acid tert-butyl ester]	< 100	< 100	–
C=C[C@@H]1C[C@]1(NC(=O)[C@@H]1C[C@@H](Oc2nccc3cc(OC)ccc23)CN1C(=O)[C@@H](NC(=O)OC(C)(C)C)C(C)(C)C)C(=O)NS(=O)(=O)C1(Cc2ccccc2)CC1 [Cmpd 303, {1-[2-[1-(1-Benzyl-cyclopropanesulfonylaminocarbonyl)-2-vinyl-cyclopropylcarbamoyl]-4-(6-methoxy-isoquinolin-1-yloxy)-pyrrolidine-1-carbonyl]-2,2-dimethyl-propyl}-carbamic acid tert-butyl ester]	100 to 1000	100 to 1000	–
C=C[C@@H]1C[C@]1(NC(=O)[C@@H]1C[C@@H](Oc2nccc3cc(OC)ccc23)CN1C(=O)[C@@H](NC(=O)OC(C)(C)C)C(C)(C)C)C(=O)NS(=O)(=O)C1(Cl)CC1 [Cmpd 304, {1-[2-[1-(1-Chloro-cyclopropanesulfonylaminocarbonyl)-2-vinyl-cyclopropylcarbamoyl]-4-(6-methoxy-isoquinolin-1-yloxy)-pyrrolidine-1-carbonyl]-2,2-dimethyl-propyl}-carbamic acid tert-butyl ester]	< 100	< 100	–
C=C[C@@H]1C[C@]1(NC(=O)[C@@H]1C[C@@H](Oc2nccc3ccccc23)CN1C(=O)[C@@H](NC(=O)OC(C)(C)C)C(C)(C)C)C(=O)NS(=O)(=O)C1(CC2CC2)CC1 [Cmpd 400]	–	100 to 1000	< 100
C=C[C@@H]1C[C@]1(NC(=O)[C@@H]1C[C@@H](Oc2nccc3ccccc23)CN1C(=O)[C@@H](NC(=O)OC(C)(C)C)C(C)(C)C)C(=O)NS(=O)(=O)C1(Cc2ccccc2)CC1 [Cmpd 401]	–	100 to 1000	100 to 1000
C=C[C@@H]1C[C@]1(NC(=O)[C@@H]1C[C@@H](Oc2cc(-c3ccccc3)nc3c(C)noc23)CN1C(=O)[C@@H](NC(=O)OC(C)(C)C)C(C)(C)C)C(=O)NS(=O)(=O)C1(Cc2ccccc2)CC1 [Cmpd 500]	< 100	100 to 1000	–
C=C[C@@H]1C[C@]1(NC(=O)[C@@H]1C[C@@H](Oc2cc(-c3ccccc3)nc3c(C)noc23)CN1C(=O)[C@@H](NC(=O)OC(C)(C)C)C(C)(C)C)C(=O)NS(=O)(=O)C1(CCC)CC1 [Cmpd 501]	–	100 to 1000	< 100
CCCC1(S(=O)(=O)NC(=O)[C@@]2(NC(=O)[C@@H]3C[C@@H](Oc4cc(-c5ccccc5)nc5c(C)noc45)CN3C(=O)[C@@H](NC(=O)OC(C)(C)C)C(C)(C)C)C[C@H]2CC)CC1 [Cmpd 502]	–	100 to 1000	100 to 1000
C=C[C@@H]1C[C@]1(NC(=O)C1C[C@@H](Oc2nc(-c3ccccc3)nc3ccccc23)CN1C(=O)[C@@H](NC(=O)OC(C)(C)C)C(C)(C)C)C(=O)NS(=O)(=O)C1(CC2CC2)CC1 (some centres unmarked) [Cmpd 600]	< 100	< 100	–
C=C[C@@H]1C[C@]1(NC(=O)[C@@H]1C[C@@H](Oc2nc(-c3ccccc3)nc3ccccc23)CN1C(=O)[C@@H](NC(=O)OC(C)(C)C)C(C)(C)C)C(=O)NS(=O)(=O)C1(Cc2ccccc2)CC1 [Cmpd 601]	< 100	100 to 1000	–
C=C[C@@H]1C[C@]1(NC(=O)[C@@H]1C[C@@H](Oc2nc(-c3ccccc3)nc3ccccc23)CN1C(=O)[C@@H](N)C(C)(C)C)C(=O)NS(=O)(=O)C1(CC2CC2)CC1 [Cmpd 602]	100 to 1000	1000 to 10000	–
C=C[C@@H]1C[C@]1(NC(=O)[C@@H]1C[C@@H](Oc2nc(-c3ccccc3)nc3ccccc23)CN1C(=O)[C@@H](NC(C)=O)C(C)(C)C)C(=O)NS(=O)(=O)C1(CC2CC2)CC1 [Cmpd 604]	< 100	100 to 1000	–
C=C[C@@H]1C[C@]1(NC(=O)[C@@H]1C[C@@H](Oc2nc(-c3ccccc3)nc3ccccc23)CN1C(=O)[C@@H](NC(=O)c1cnccn1)C(C)(C)C)C(=O)NS(=O)(=O)C1(CC2CC2)CC1 [Cmpd 605]	100 to 1000	1000 to 10000	–
C=C[C@@H]1C[C@]1(NC(=O)[C@@H]1CC(Oc2ccnc(-c3cccs3)c2)CN1C(=O)[C@@H](NC(=O)OC1CCCC1)C(C)(C)C)C(=O)NS(=O)(=O)C1(CC2CC2)CC1 (some centres unmarked) [Cmpd 700]	< 100	< 100	–
C=C[C@@H]1C[C@]1(NC(=O)[C@@H]1CC(Oc2ccnc(-c3cccs3)c2)CN1C(=O)[C@@H](NC(=O)OC1CCCC1)C(C)(C)C)C(=O)NS(=O)(=O)C1(Cc2ccccc2)CC1 (some centres unmarked) [Cmpd 701]	< 100	100 to 1000	–
C=C[C@@H]1C[C@]1(NC(=O)[C@@H]1C[C@@H](Oc2nccc3c(OC)cccc23)CN1C(=O)[C@@H](NC(=O)OC(C)(C)C)C(C)(C)C)C(=O)NS(=O)(=O)C1(CC)CC1 [Cpd 100]	–	< 100	< 100
C=C[C@@H]1C[C@]1(NC(=O)[C@@H]1C[C@@H](Oc2nccc3c(Cl)cccc23)CN1C(=O)[C@@H](NC(=O)OC(C)(C)C)C(C)(C)C)C(=O)NS(=O)(=O)C1(CC)CC1 [Cpd 101]	< 100	< 100	–
C=C[C@@H]1C[C@]1(NC(=O)[C@@H]1C[C@@H](Oc2ncc(Cl)c3ccccc23)CN1C(=O)[C@@H](NC(=O)OC(C)(C)C)C(C)(C)C)C(=O)NS(=O)(=O)C1(CC)CC1 [Cpd 102]	–	100 to 1000	< 100
C=C[C@@H]1C[C@]1(NC(=O)[C@@H]1C[C@@H](Oc2nccc3c(OC(F)(F)F)cccc23)CN1C(=O)[C@@H](NC(=O)OC(C)(C)C)C(C)(C)C)C(=O)NS(=O)(=O)C1(CC)CC1 [Cpd 103]	< 100	100 to 1000	–
